The test system of assay [1] is DDX42. Description: SEC-MS elution profile. The following applies: 22Rv1 cells, 20 μM, 3 h. Type of assay: cell-based, human. As to the method:
. Cell pellets were lysed by sonication (8 pulses, 40% power) in 600 μL ice-cold PBS supplemented with cOmplete protease inhibitors (1 tablet/10 mL of PBS), ultracentrifuged for 20 min at 100,000 g, then normalized to a standardized concentration (typically 1.5 to 2.5 mg/mL). Clarified lysate was injected into a Superdex 200 Increase 10/300 GL column attached to an AKTA pure FPLC system. Proteins were fractionated using an isocratic gradient (PBS) running at 0.5 mL/min into 5 fractions 2 mL wide, beginning at 8 mL and ending at 18 mL. Eluate was collected into 15 mL tubes containing 12 mL of acetone at 4C. After completion of one set of 5 fractions, the above protocol was repeated a second time for the remaining 5 fractions. Proteins were precipitated overnight at −20 C, then spun at 4500 g for 20 minutes, yielding a white protein pellet. […]
Data processing: Fractional distributions for each peptide-spectra match with a total TMT reporter ion intensity were calculated by dividing the reporter ion intensity for each TMT channel by the summed intensity across the 5 TMT channels corresponding to a single treatment condition (Equation 1). […] Euclidean distances (SE shift scores, Equation 2) were calculated using the average elution profile for each protein across replicates, combined by treatment condition and cell line. […]

Assay [2] has as its target T1, PSME1_C106 and PSME2_C91 (Homo sapiens, UniProt Q06323).
T1 construct: endogenous in cells; host or cells: 22Rv1
The experiment in a line: IA-DTB cysteine reactivity. Type of assay: binding. The following applies: 22Rv1 cells, 20 μM, 1 h. As to the method:
Sample preparation: Cells (adherent: 15 cm dishes, suspension: 2 million cells/mL) were treated with electrophilic probes in situ for indicated times and concentrations, washed with ice-cold PBS, and flash frozen in liquid nitrogen. Cell pellets were lysed by sonication (8 pulses, 40% power) in 500 μL ice-cold PBS supplemented with cOmplete protease inhibitors (1 tablet/10 mL of PBS). Whole cell lysates protein content was measured using a standard DC protein assay (Bio-Rad) and 500 μL (2 mg/mL protein content) were treated with 5 μL of 10 mM 1A-DTB (in DMSO) for 1 h at ambient temperature with occasional vortexing. Samples were methanol-chloroform precipitated with the addition of 500 μL ice-cold MeOH and 200 μL CHCl3, vortexed, and centrifuged (10 min, 10,000 g). Without disrupting the protein disk, both top and bottom layers were aspirated and the protein disk was washed with 1 mL ice-cold MeOH and centrifuged (10 min, 10,000 g). The pellets were allowed to air dry, and then re-suspended in 90 μL buffer (9 M urea, 10 mM DTT, 50 mM TEAB pH 8.5). […]
Data processing: Cysteine engagement ratios (probe vs DMSO) were calculated for each peptide-spectra match by dividing each TMT reporter ion intensity by the average intensity for the channels corresponding to DMSO treatment. […]

T1 sequence (Q06323 whole entry): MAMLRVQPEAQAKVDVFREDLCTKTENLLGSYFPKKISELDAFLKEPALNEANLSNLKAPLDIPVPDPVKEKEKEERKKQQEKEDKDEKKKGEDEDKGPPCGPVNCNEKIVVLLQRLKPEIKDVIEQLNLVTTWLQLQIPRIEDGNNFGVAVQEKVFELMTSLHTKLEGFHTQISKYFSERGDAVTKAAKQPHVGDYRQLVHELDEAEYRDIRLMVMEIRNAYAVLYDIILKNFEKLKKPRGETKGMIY

Take `C=CC(=O)N1[C@H](c2ccc3c(c2)OCO3)c2[nH]c3ccccc3c2C[C@H]1C(=O)N1CCOCC1` [WX-02-23, 1-((1R,3S)-1-(benzo[d][1,3]dioxol-S-yl)-3-(morpholine-4-carbonyl)-1,3,4,9-tetrahydro-2H-pyrido [3,4-b]indol-2-yl)prop-2-en-1-one]: the “SEC migration shift of DDX42” value in assay [1] is recorded as “stereoselectively caused this same size shift”.

Consider `C=CC(=O)N1C[C@H](c2ccc(Br)cc2)[C@@H]1C(=O)Nc1cccc2cccnc12` [MY-1B, (2R,3S)-1-acryloyl-3-(4-bromophenyl)-N-(quinolin-8-yl)azetidine-2-carboxamide], for which, in assay [2], the “IA-DTB reactivity of PSME1 C106 and PSME2 C91” value is reported as “striking, stereoselective increases in reactivity”.

Values taken from patent US20250034216A1, “STEREOSELECTIVE COVALENT LIGANDS FOR ONCOGENIC AND IMMUNOLOGICAL PROTEINS” (The Scripps Research Institute, priority 2021, published 2025).
